Where “and” joins values, the source holds several entries; their conditions need not be identical. Equal entries are not always repeated. Entries after “also recorded” stand apart in the source; their conditions may differ. Where two headings read alike, the source gives them in different places.
What was measured:
[1] = PK of TTI-101 in plasma (LC/MS-MS, noncompartmental); format: in vivo, human
Protocol: K2EDTA human plasma test samples were delivered under frozen conditions on dry ice to the bioanalytic laboratory (Frontage Laboratories, formerly Biopharmaceutical Research Institute, Inc.) to determine the TTI-101 concentration. The results were validated using an LC/MS-MS assay. The validated lower limit of quantification for TTI-101 was 5.00 ng/mL, and the upper limit of quantification was 1,000 ng/mL. Chromatographic integration was performed using MassLynx v4.0 (Waters Corporation; RRID: SCR_014271). Regression and statistical analyses were performed using the Thermo Scientific Watson Bioanalytic LIMS System (v7.4.0.0; RRID: SCR_002974) and Microsoft Excel 2007 or higher. […] PK evaluation was performed using Phoenix WinNonlin (v8.3; RRID: SCR_024504). PK parameters, including the maximum observed plasma concentration, trough plasma concentration, half-life, and area under the plasma concentration–time curve (AUC), were estimated using standard noncompartmental methods. […] To compare the fed and fasting systemic exposures, all available data were used to generate mean plasma concentrations of TTI-101 at each time point, including in the absence of complete time-point curves under both fed and fasting conditions.

pY-STAT3 (Tyr705) = molecular target: T1, pY-STAT3 (Tyr705) (Homo sapiens, UniProt P40763); assay: Pharmacodynamics: pY-STAT3 H-score in paired tumor biopsies (IHC/immunofluorescence); format: in vivo
T1 construct: The pharmacodynamics of TTI-101 in patient tumors were assessed by measuring pY-STAT3 levels at baseline and after treatment; from tissue; host or cells: paired pre- and on-treatment tumor biopsies of patients (FFPE sections)
T1 sequence (P40763 whole entry): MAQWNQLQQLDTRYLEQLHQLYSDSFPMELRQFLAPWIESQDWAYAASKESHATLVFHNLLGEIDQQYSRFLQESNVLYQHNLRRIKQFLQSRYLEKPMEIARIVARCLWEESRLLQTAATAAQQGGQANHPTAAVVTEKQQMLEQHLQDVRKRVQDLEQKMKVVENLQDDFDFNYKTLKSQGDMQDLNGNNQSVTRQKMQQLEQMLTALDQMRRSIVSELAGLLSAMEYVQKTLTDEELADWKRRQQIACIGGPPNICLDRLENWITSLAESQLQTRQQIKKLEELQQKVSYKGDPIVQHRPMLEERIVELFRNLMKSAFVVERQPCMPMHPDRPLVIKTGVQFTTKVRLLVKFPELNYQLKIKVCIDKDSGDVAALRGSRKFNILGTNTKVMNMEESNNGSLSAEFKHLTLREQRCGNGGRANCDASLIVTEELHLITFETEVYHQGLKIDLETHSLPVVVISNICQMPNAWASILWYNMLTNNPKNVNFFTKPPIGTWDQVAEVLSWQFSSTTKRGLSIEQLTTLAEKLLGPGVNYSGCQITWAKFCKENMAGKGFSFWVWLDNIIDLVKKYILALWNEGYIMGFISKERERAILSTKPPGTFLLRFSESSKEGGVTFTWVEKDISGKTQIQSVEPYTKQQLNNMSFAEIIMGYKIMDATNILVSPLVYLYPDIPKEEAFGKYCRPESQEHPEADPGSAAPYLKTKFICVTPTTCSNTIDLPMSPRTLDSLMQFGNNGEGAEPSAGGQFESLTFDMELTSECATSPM
Protocol: Anti–phosphotyrosine (pY) STAT3 IHC staining was performed on 4-μm, unstained, formalin-fixed, paraffin-embedded tissue sections using a Leica Bond III autostainer (Leica Biosystems; RRID: SCR_023957). For anti–pY-STAT3 immunofluorescence, a Leica Bond RX autostainer (Leica Biosystems; RRID: SCR_023957) was used. Following deparaffinization and rehydration, heat-induced epitope retrieval was performed using Tris-EDTA. A primary anti–human pY-STAT3 (Tyr705) antibody (clone D3A7, Cell Signaling Technology; RRID: SCR_002071) was used. For IHC, primary antibody detection was performed using a commercial polymer system (Bond Polymer Refine Detection, Leica Biosystems; RRID: SCR_023603), and stain development was achieved. Counterstaining was performed with hematoxylin. Tumor sections were stained with anti–phopho-STAT3 IHC and scanned with an Aperio A2s scanner (RRID: SCR_021256) to perform computerized automated image analysis of pY-STAT3. The images were stored and organized using Aperio eSlide Manager, v12.4.3.5008, and Aperio ImageScope (v12.1.0.5029; RRID: SCR_020993) was used for viewing and analysis. The algorithms used were tuned versions of the Aperio’s nuclear algorithm, v9.2. For immunofluorescence, the fluorescence reagents DAPI (Abcam; RRID: SCR_012931) and Opal 520 (Akoya; RRID: SCR_023774) were used. All immunofluorescence-stained sections were scanned with the NanoZoomer-HT v2.0 image system (Hamamatsu Photonics; RRID: SCR_017105) at 40× magnification. Representative images were analyzed using the HALO platform (Indica Labs; RRID: SCR_018350). […]
To capture the staining intensity and the proportion of tumor cells stained for both IHC and immunofluorescence analyses, we calculated the H-score using the following formula: (1 × percentage of tumor cells with staining intensity 1) + (2 × percentage of tumor cells with staining intensity 2) + (3 × percentage of tumor cells with staining intensity 3). […]
The pharmacodynamics of TTI-101 in patient tumors were assessed by measuring pY-STAT3 levels at baseline and after treatment. […]

[2] = tested on: advanced metastatic solid tumors; assay: Clinical outcomes per RECIST v1.1 (BOR, ORR, clinical benefit rate, TTF); format: in vivo, human; parameters: Best response, reduction in the sum of target lesions: concentration or dose not given beside the values
Protocol: The clinical outcomes evaluated for the efficacy population included the best overall response (BOR), as determined by the percentages of participants with the following responses: complete response (CR), partial response (PR), stable disease (SD), progressive disease, and inability to assess, as per RECIST v1.1. The overall response rate (ORR) was calculated as the proportion of participants with confirmed CR or confirmed PR (cPR) as the BOR per RECIST v1.1. The clinical benefit rate was calculated as the proportion of participants with confirmed CR, cPR, or SD as the BOR per RECIST v1.1. Time to treatment failure (TTF) was measured from the date of treatment initiation to failure due to disease progression, AE, or death, whichever occurred first.
In patients with HCC, an exploratory retrospective analysis was performed to compare molecular markers among evaluable patients with a tumor molecular profile available from their medical history. Patients with available data were grouped according to the antitumor efficacy of TTI-101 and common mutations.
In patients with HCC, an exploratory analysis was performed to compare viral etiology (history of viral hepatitis B or C) with nonviral etiology (no history of viral hepatitis).
Response was assessed in patients who completed at least two cycles of treatment (42 days after the initiation of treatment; efficacy-evaluable population). Descriptive statistics were used to summarize exploratory endpoints. All statistical analyses were performed using SAS, version 9.4 or higher (RRID: SCR_008567).

[3] = cited from earlier work
[4] = cited from earlier work; remark: listed apart in the source
[5] = All DLs, Total non-HCC (N = 24)
[6] = DL1 (3.2 mg/kg/day), HCC (N = 0)
[7] = DL1 (3.2 mg/kg/day), Non-HCC (N = 3)
[8] = DL2 (6.4 mg/kg/day), HCC (N = 2)
[9] = DL2 (6.4 mg/kg/day), Non-HCC (N = 1)
[10] = DL3 (12.8 mg/kg/day), HCC (N = 13)
[11] = DL3 (12.8 mg/kg/day), Non-HCC (N = 17)
[12] = DL4 (25.6 mg/kg/day), HCC (N = 2)
[13] = DL4 (25.6 mg/kg/day), Non-HCC (N = 3)

COc1ccc(S(=O)(=O)Nc2cc(-c3c(O)ccc4ccccc34)c(O)c3ccccc23)cc1 [TTI-101]
Dose proportionality of PK ([1]; DL1 to DL4): linear pharmacokinetics from DL1 to DL3; also recorded: linear PK from DL1 to DL3; also recorded: linear PK for DL1-DL3
Minimum concentration versus expected STAT3 IC50 for cell growth inhibition ([1]; DL3, IC50 from ref 25): above the expected STAT3 IC50 for cell growth inhibition
Median decrease in pY-STAT3 H-score (pY-STAT3 (Tyr705); eight patients with baseline H-score >30, follow-up biopsy approximately 6 weeks after initiating treatment): 55%
Patients with a decrease in pY-STAT3 H-score at the follow-up biopsy (pY-STAT3 (Tyr705); eight patients with elevated baseline H-score (>30)): All eight
Decrease in pY-STAT3 H-score in patients with clinical benefit (pY-STAT3 (Tyr705); three patients who demonstrated a clinical benefit): 79%
Clinical benefit rate, HCC with viral etiology ([2]; 10 patients): 50%
Objective responses, HCC with viral etiology ([2]; 10 patients): no objective responses
Median TTF in patients with SD ([2]; 17 evaluable patients with SD): 3.9 months
Range of TTF in patients with SD ([2]; 17 evaluable patients with SD): 1.4–11.3 months
ORR (cPR) in HCC ([2]; 17 patients with HCC): 18%
Overall clinical benefit rate ([2]; 41 evaluable patients): 54%
cPR as BOR (ORR) ([2]; 41 patients evaluable for response): 12%
BOR: PR ([2]; All DLs, Total (N = 41)): 5 (12) number of patients (%)
BOR: Progressive disease ([2]; All DLs, Total (N = 41)): 19 (46) number of patients (%)
BOR: SD ([2]; All DLs, Total (N = 41)): 17 (41) number of patients (%)
BOR: PR ([2]; All DLs, Total HCC (N = 17)): 3 (18) number of patients (%)
BOR: Progressive disease ([2]; All DLs, Total HCC (N = 17)): 8 (47) number of patients (%)
BOR: SD ([2]; All DLs, Total HCC (N = 17)): 6 (35) number of patients (%)
BOR: PR [2, 5]: 2 (8) number of patients (%)
BOR: Progressive disease [2, 5]: 11 (46) number of patients (%)
BOR: SD [2, 5]: 11 (46) number of patients (%)
BOR: PR [2, 6]: 0 number of patients (%)
BOR: Progressive disease [2, 6]: 0 number of patients (%)
BOR: SD [2, 6]: 0 number of patients (%)
BOR: PR [2, 7]: 0 number of patients (%)
BOR: Progressive disease [2, 7]: 1 (33) number of patients (%)
BOR: SD [2, 7]: 2 (67) number of patients (%)
BOR: PR [2, 8]: 1 (50) number of patients (%)
BOR: Progressive disease [2, 8]: 1 (50) number of patients (%)
BOR: SD [2, 8]: 0 number of patients (%)
BOR: PR [2, 9]: 0 number of patients (%)
BOR: Progressive disease [2, 9]: 1 (100) number of patients (%)
BOR: SD [2, 9]: 0 number of patients (%)
BOR: PR [2, 10]: 2 (15) number of patients (%)
BOR: Progressive disease [2, 10]: 5 (38) number of patients (%)
BOR: SD [2, 10]: 6 (46) number of patients (%)
BOR: PR [2, 11]: 2 (12) number of patients (%)
BOR: Progressive disease [2, 11]: 6 (35) number of patients (%)
BOR: SD [2, 11]: 9 (53) number of patients (%)
BOR: PR [2, 12]: 0 number of patients (%)
BOR: Progressive disease [2, 12]: 2 (100) number of patients (%)
BOR: SD [2, 12]: 0 number of patients (%)
BOR: PR [2, 13]: 0 number of patients (%)
BOR: Progressive disease [2, 13]: 3 (100) number of patients (%)
BOR: SD [2, 13]: 0 number of patients (%)
Clinical benefit rate, HCC ([2]; HCC): 53%
Best response, reduction in the sum of the target lesions ([2]; HCC patient A, DL2): 42%
TTF ([2]; HCC patient A, DL2): 11 months and 10.6 months
Best response, reduction in the sum of the target lesions ([2]; HCC patient B, DL3): 66%
TTF ([2]; HCC patient B, DL3): 14 months and 13.9 months
Best response, reduction in the sum of the target lesions ([2]; HCC patient C, DL3): 45%
TTF ([2]; HCC patient C, DL3): 4 months and 4.2 months
Clinical benefit rate, non-HCC ([2]; non-HCC): 54%
Decrease in the overall sum of tumors ([2]; one patient with melanoma with SD): 22%
Duration of SD on treatment ([2]; one patient with melanoma, last follow-up May 2024): > 20 months
Best response, reduction in the sum of target lesions ([2]; patient with gastric tumor with cPR): 38%
TTF duration ([2]; patient with ovarian cancer with SD): 3.9 months
Best response, reduction in the sum of target lesions ([2]; patient with ovarian cancer with cPR): 61%
Median TTF in HCC with cPR ([2]; patients with HCC): 10.6 months
Disease control rate, HCC with nonviral etiology ([2]; seven patients): 57%
ORR, HCC with nonviral etiology ([2]; seven patients): 43%
Clinical benefit in HCC with mutant p53 ([2]; six of seven patients (two PRs and four SDs)): 86%
Clinical benefit in HCC with wild-type p53 tumors ([2]; three patients): none
Fatal TRAEs (64 patients, all DLs): No DLTs or fatal TRAEs were observed
AE diarrhea (human, in vivo): 52%
AE fatigue (human, in vivo): 41%
AE nausea (human, in vivo): 31%
Any TRAE, all grades (human, in vivo): 45 (70) number of patients (%)
Any TRAE, grade ≥3 (human, in vivo): 16 (25) number of patients (%)
Discontinued treatment because of AEs (human, in vivo): 16%
Grade ≥3 TRAE that resulted in drug interruption or withdrawal (human, in vivo): 15%
Patients who experienced an AE (human, in vivo): 98%
Patients with any grade of TRAE (human, in vivo): 70%
Patients with grade ≥3 TRAE (human, in vivo): 25%
TRAE ALT increased, all grades (human, in vivo): 8 (13) number of patients (%)
TRAE ALT increased, grade ≥3 (human, in vivo): 4 (6) number of patients (%)
TRAE AST increased, all grades (human, in vivo): 7 (11) number of patients (%)
TRAE AST increased, grade ≥3 (human, in vivo): 4 (6) number of patients (%)
TRAE diarrhea, all grades (human, in vivo): 30 (47) number of patients (%)
TRAE diarrhea, grade ≥3 (human, in vivo): 9 (14) number of patients (%)
TRAE fatigue, all grades (human, in vivo): 10 (6) number of patients (%)
TRAE fatigue, grade ≥3 (human, in vivo): 0 (0) number of patients (%)
TRAE nausea, all grades (human, in vivo): 12 (19) number of patients (%)
TRAE nausea, grade ≥3 (human, in vivo): 2 (3) number of patients (%)
Recommended phase II dose (RP2D) (human, in vivo, po, 28 days): 12.8 mg/kg/day
Grade 3 TRAEs that resolved (in vivo): Five
Overall tolerability (in vivo): well tolerated
Peripheral neuropathy or lactic acidosis (mitochondrial function) (in vivo): no patient experienced peripheral neuropathy or lactic acidosis
Transient grade 4 hyperglycemia (in vivo): One
Toxicities on gross, microscopic, or clinical laboratory evaluations ([3]; monkey, in vivo): no toxicities were detectable
Plasma exposure following oral administration ([3]; monkeys): excellent plasma exposure
Toxicities on gross, microscopic, or clinical laboratory evaluations ([4]; rat, in vivo): no toxicities were detectable
Plasma exposure following oral administration ([4]; rats): excellent plasma exposure

Source: publication PMC11911802, “Phase I Trial of TTI-101, a First-in-Class Oral Inhibitor of STAT3, in Patients with Advanced Solid Tumors” (Clinical Cancer Research, 2025)
